Measured values published in patent US7524487B2, “Compositions and methods for modulating interleukin-10” (University of Maryland, priority 2005, dated 2009).

System: IL-10 promoter
Assay: ChIP of histone H3 phosphorylation at the IL-10 promoter in stimulated BMMφ
Assay type: cell-based, mice
Method: BMMφ were stimulated with medium (open bars), LPS (solid bars) or E-IgG+LPS (striped bars) for 15 minutes (A), or the indicated times (B) and ChIP assays were carried out as described in Materials and Methods. Immunoprecipitations utilized antibodies specific to phospho-H3 (left panel) or acetyl-H3 (right panel). A. conventional RT-PCR and B. real time PCR were carried out using IL-10 promoter or IL-12p40 promoter specific primers. For real time PCR, samples were normalized to input DNA controls.
Cells were pretreated with PD98059 (10 μM), SB203580 (1 μM) or medium for 30 min then stimulated with medium (open bar), IgG-OVA (dotted bar), LPS (solid bar), or both (striped bars) for 40 min. ChIP analysis was carried out using a phospho-H3 specific Ab. A. Conventional RT-PCR was carried out using IL-10 promoter or IL-12p40 promoter specific primers. B. Real time PCR analysis of samples obtained in A. Samples were normalized to input DNA controls.
FIG. 22 is a graph showing Inhibition of histone modifications by blocking ERK. BMMφ were pre-treated with PD98059 (15 μM) (solid bars) or drug vehicle (open bars) for 1 hour and then stimulated with IC plus LPS (10 ng/mL). Cross-linked chromatin fragments were immunoprecipitated with antibody to phosphorylated histone H3 at Ser 10 or antibody to Sp1. The DNA was purified and analyzed for the presence of IL-10 promoter sequences corresponding to nucleosome −2 by QRT-PCR. The data were plotted graphically as the percentage change relative to drug vehicle (IC/LPS) at 30 min post-stimulation for histone H3 phosphorylation, and at 45 min post-stimulation for Sp1 recruitment. One representative from two independent experiments is presented.
Chromatin immunoprecipitation (ChIP). ChIPs were carried out using the ChIP Assay kit following the manufacturer's protocol (Upstate USA, Inc., Lake Placid, N.Y.). Briefly, 1×10^6 BMMφ were plated overnight in 6-well plates. Cells were stimulated as described in Figure Legends then fixed for 10 min at 37° C. in paraformaldehyde (1% final concentration). […]

In the case of `COc1cccc(-c2cc(=O)c3ccccc3o2)c1N` [PD98059], the “histone H3 Ser 10 phosphorylation at IL-10 promoter nucleosome −2 (ChIP, QRT-PCR)” value (BMMφ pre-treated with PD98059 15 μM for 1 hour, IC plus LPS 10 ng/mL, 30 min post-stimulation, relative to drug vehicle) is reported as “substantial loss” and the “histone H3 phosphorylation at the IL-10 promoter induced by immune complex (ChIP)” value (BMMφ pretreated 30 min with PD98059 10 μM or SB203580 1 μM, then IgG-OVA + LPS for 40 min) is reported as “completely abrogated”.
